This passage reports inhibition results from ChEMBL document CHEMBL2385072, “Development of oleanane-type triterpenes as a new class of HCV entry inhibitors” (J Med Chem, 2013).

What all share (conditions): HEK-293T
Experiment [1] concerns Hepatitis C virus. The experiment in a line: Antiviral activity against pseudo HCV infected in human 293T cells assessed as inhibition of HCV pseudo particles entry at 10 uM after 72 hrs by luciferase reporter gene assay. The format is functional, Hepacivirus hominis. (In general: A reporter such as luciferase makes a cellular process visible.)
Experiment [2] relates to Hepatitis C virus. The experiment in a line: Antiviral activity against pseudo HCV infected in human 293T cells assessed as inhibition of HCV pseudo particles entry at 1 uM after 72 hrs by luciferase reporter gene assay. The format is functional, Hepacivirus hominis.
Experiment [3] deals with Vesicular stomatitis virus. Description: Antiviral activity against pseudo VSV infected in human 293T cells assessed as inhibition of vesicular stromatis G protein pseudo particles entry at 5 uM after 72 hrs by luciferase reporter gene assay. The format is functional.
Experiment [4] relates to Hepatitis C virus. Description: Antiviral activity against pseudo HCV infected in human 293T cells assessed as inhibition of HCV pseudo particles entry at 5 uM after 72 hrs by luciferase reporter gene assay. The format is functional, Hepacivirus hominis.
For experiment [5], the system named is Vesicular stomatitis virus. The experiment in a line: Antiviral activity against pseudo VSV infected in human 293T cells assessed as inhibition of vesicular stromatis G protein pseudo particles entry at 1 uM after 72 hrs by luciferase reporter gene assay. In kind it is functional.

What is called inhibition is the drop in the measured response relative to a control, in per cent. As to `CC1(C)CC[C@]2(C(=O)O)CC[C@]3(C)C(=CC[C@@H]4[C@@]5(C)C[C@@H](O)[C@H](O)[C@@](C)(CO)[C@@H]5CC[C@]43C)[C@@H]2C1` [ARJUNOLIC ACID], the inhibition at 10 µM in experiment [1] amounted to 0%.
Same read-out and setting: the value for `C[C@H]1[C@H](C)CC[C@]2(C(=O)O)CC[C@]3(C)C(=CC[C@@H]4[C@@]5(C)CC[C@H](O)C(C)(C)[C@@H]5CC[C@]43C)[C@H]12` [URSOLIC ACID] was 30%; that for `CC1(C)CC[C@]2(C(=O)O)CC[C@]3(C)C(=CC[C@@H]4[C@@]5(C)C[C@@H](O)[C@H](O)C(C)(C)[C@@H]5CC[C@]43C)[C@@H]2C1` [MASLINIC ACID] was 0%; that for `CC1(C)CC[C@]2(C(=O)NCCCC[C@H](N)C(=O)O)CC[C@]3(C)C(=CC[C@@H]4[C@@]5(C)CC[C@H](O)C(C)(C)[C@@H]5CC[C@]43C)[C@@H]2C1` was 60%.
On to `CC1(C)CC[C@]2(C(=O)O)[C@H](O)C[C@]3(C)C(=CC[C@@H]4[C@@]5(C)CC[C@H](O)[C@@](C)(C(=O)O)[C@@H]5CC[C@]43C)[C@@H]2C1`, for which, in experiment [1], the inhibition at 10 µM is 0%.
Consider `CC1(C)CC[C@]2(C(=O)O)CC[C@]3(C)C(=CC[C@@H]4[C@@]5(C)CC[C@H](OC6O[C@H](CO)[C@@H](O)[C@H](O)[C@H]6O)[C@@](C)(CO)[C@@H]5CC[C@]43C)[C@@H]2C1` (stereo partly drawn), for which the inhibition at 10 µM in experiment [1] worked out at 0%.
On the same count and under the same terms, the value for `CC1(C)CC[C@]2(C(=O)O)CC[C@]3(C)C(=CC[C@@H]4[C@@]5(C)CC[C@H](O)[C@@](C)(CO)[C@@H]5CC[C@]43C)[C@@H]2C1` [HEDERAGENIN] was 10%; that for `CC1(C)CC[C@]2(C(=O)O)CC[C@]3(C)C(=CC[C@@H]4[C@@]5(C)CC[C@H](O)C(C)(C)[C@@H]5[C@@H](O)C[C@]43C)[C@@H]2C1` was 0%.
The same measure, in the same setting: as for `CC1(C)CC[C@]2(C(=O)O)[C@H](O)C[C@]3(C)C(=CC[C@@H]4[C@@]5(C)CC[C@H](O)[C@@](C)(CO)[C@@H]5CC[C@]43C)[C@@H]2C1`, the figure is 20%; as for `C=C(C)[C@@H]1CC[C@]2(C(=O)O)CC[C@]3(C)[C@H](CC[C@@H]4[C@@]5(C)CC[C@H](O)C(C)(C)[C@@H]5CC[C@]43C)[C@@H]12` [BETULINIC ACID], 75%.
For `CC1(C)C[C@H]2C3=CC[C@@H]4[C@@]5(C)CC[C@H](O)C(C)(C)[C@@H]5CC[C@@]4(C)[C@]3(C)C[C@@H](O)[C@@]2(C(=O)O)C[C@@H]1O`, the inhibition at 10 µM in experiment [1] worked out at 15%.
Still for that read-out and setting: the value for `CC1(C)CC[C@]2(C(=O)O)CC[C@]3(C)C(=C[C@@H](O)[C@@H]4[C@@]5(C)CC[C@H](O)C(C)(C)[C@@H]5CC[C@]43C)[C@@H]2C1` was 50%; that for `COC(=O)[C@]12CCC(C)(C)C[C@H]1C1=CC[C@@H]3[C@@]4(C)CC[C@H](O)C(C)(C)[C@@H]4CC[C@@]3(C)[C@]1(C)CC2` [METHYL OLEANOLATE] was 60%.
`CC1(C)CC[C@]2(C(=O)NCc3cn([C@@H]4O[C@H](CO)[C@@H](O[C@@H]5O[C@H](CO)[C@H](O)[C@H](O)[C@H]5O)[C@H](O)[C@H]4O)nn3)[C@H](O)C[C@]3(C)C(=CC[C@@H]4[C@@]5(C)CC[C@H](O)C(C)(C)[C@@H]5CC[C@]43C)[C@@H]2C1`: the figures for the inhibition at 1 µM in experiment [2] and in experiment [5] were 23.1% and 47%, respectively. The inhibition at 5 µM in experiment [3] was found to be 47.3%; in experiment [4], 14.6%.
In the same order, the values of `CC(=O)OC[C@H]1O[C@@H](n2cc(CNC(=O)[C@]34CCC(C)(C)C[C@H]3C3=CC[C@@H]5[C@@]6(C)CC[C@H](O)C(C)(C)[C@@H]6CC[C@@]5(C)[C@]3(C)C[C@H]4O)nn2)[C@H](OC(C)=O)[C@@H](OC(C)=O)[C@@H]1O[C@H]1O[C@H](COC(C)=O)[C@@H](O[C@H]2O[C@H](COC(C)=O)[C@@H](OC(C)=O)[C@H](OC(C)=O)[C@H]2OC(C)=O)[C@H](OC(C)=O)[C@H]1OC(C)=O` are 45.4%, 17.7%, 14% and 62.9%.
Take `COC(=O)[C@]12CCC(C)(C)C[C@H]1[C@H]1C(=O)C[C@@H]3[C@@]4(C)CC[C@H](O)C(C)(C)[C@@H]4CC[C@@]3(C)[C@]1(C)C[C@H]2O`: the inhibition at 1 µM in experiment [2] came to 4.9%; in experiment [5], 42.7%. In addition, the results for the inhibition at 5 µM in experiment [3] and in experiment [4] were 46.1% and -8.7%, respectively.
For `CC1(C)CC[C@]2(C(=O)O[C@@H]3O[C@H](CO)[C@H](O)[C@H](O)[C@H]3O)[C@H](O)C[C@]3(C)C(=CC[C@@H]4[C@@]5(C)CC[C@H](O)C(C)(C)[C@@H]5CC[C@]43C)[C@@H]2C1` the same measures were 40.9%, 8.1%, 14.6% and 61.6%.
On to `CC1(C)CC[C@]2(C(=O)NCc3cn([C@@H]4O[C@H](CO)[C@@H](O)[C@H](O)[C@@H]4O)nn3)[C@H](O)C[C@]3(C)C(=CC[C@@H]4[C@@]5(C)CC[C@H](O)C(C)(C)[C@@H]5CC[C@]43C)[C@@H]2C1`, for which the inhibition at 1 µM in experiment [2] is 17.5%; in experiment [5], 17.9%. The inhibition at 5 µM in experiment [3] was 19.5%; in experiment [4] it was 25%.
`COC(=O)[C@]12CCC(C)(C)C[C@H]1C1=CC[C@@H]3[C@@]4(C)CC[C@H](O)C(C)(C)[C@@H]4CC[C@@]3(C)[C@]1(C)C[C@H]2OC`: the inhibition at 1 µM in experiment [2] is 17.5%; in experiment [5] it was 7.3%. Further, the values for the inhibition at 5 µM in experiment [3] and in experiment [4] were 9.9% and 33.7%, respectively.
In the same order, the values of `CC1(C)CC[C@]2(C(=O)NCCCNC(=O)[C@]34CCC(C)(C)C[C@H]3C3=CC[C@@H]5[C@@]6(C)CC[C@H](O)C(C)(C)[C@@H]6CC[C@@]5(C)[C@]3(C)C[C@H]4O)[C@H](O)C[C@]3(C)C(=CC[C@@H]4[C@@]5(C)CC[C@H](O)C(C)(C)[C@@H]5CC[C@]43C)[C@@H]2C1` are 44.6%, 18.7%, 27.6% and 58.2%.
Take `CC1(C)CC[C@]2(C(=O)NCc3cn([C@@H]4O[C@H](CO)[C@@H](O)[C@H](O)[C@H]4O)nn3)[C@H](O)C[C@]3(C)C(=CC[C@@H]4[C@@]5(C)CC[C@H](O)C(C)(C)[C@@H]5CC[C@]43C)[C@@H]2C1`: the figures for the inhibition at 1 µM in experiment [2] and in experiment [5] were 12.4% and -15.2%, respectively. The inhibition at 5 µM stood at 19.1% in experiment [3] and 33.1% in experiment [4].
In the same order, the values of `CC(=O)O[C@@H]1[C@H](OC(C)=O)[C@H](n2cc(CNC(=O)[C@]34CCC(C)(C)C[C@H]3C3=CC[C@@H]5[C@@]6(C)CC[C@H](O)C(C)(C)[C@@H]6CC[C@@]5(C)[C@]3(C)C[C@H]4O)nn2)OC[C@H]1OC(C)=O` are 21.8%, 29.3%, 32.2% and 65.8%.
For `COC(=O)[C@]12CCC(C)(C)C[C@H]1C1=CC[C@@H]3[C@@]4(C)CC=CC(C)(C)[C@@H]4CC[C@@]3(C)[C@]1(C)C[C@H]2O` the same measures were -3.3%, 7.6%, 9.7% and -8.9%.
